From US10703757B2, “Compounds and methods for CDK8 modulation and indications therefor” (Plexxikon Inc., priority 2016, dated 2020)

Tests used:
[1] = test system: CDK8 (phosphorylation of STAT1 at serine 727 in A549 cells); experiment: Cell based Phospho-STAT1 assay (IFNγ-stimulated A549 cells, AlphaLISA); details: Homo sapiens, phospho-STAT1 after IFNγ stimulation
Procedure, shortened: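 A549 cells given serial compound dilutions for 1 h at 37 °C, then stimulated with IFNγ at 10 ng/mL final for 30 min. Lysate STAT1 Ser727 phosphorylation measured by AlphaLISA; % inhibition vs stimulated/unstimulated DMSO controls, IC50 by nonlinear regression.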

[2] = test system: CDK8 (TCF/LEF luciferase reporter in HCT116 cells); experiment: Cell based TCF/LEF reporter assay (HCT116+TCF/LEF luciferase); details: Homo sapiens
Procedure, shortened: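 HCT116 cells stably carrying a TCF/LEF-luciferase reporter (endogenous mutant β-catenin), seeded overnight, then exposed to serial compound dilutions for 24 h at 37 °C. Luminescence normalized to CellTiter-Fluor viability signal. % inhibition relative to DMSO and 10 uM CCT251545 controls, with IC50 from nonlinear regression.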

SMILES	IC50 ([1]; A549, A549 cells)	IC50 ([2]; HCT-116, 24 h)	IC50 ([1]; A549 cells)	IC50 ([2]; HCT-116, 24 hours)
COc1ccc2cc(-c3cnn4ccnc(C5=CCC(C#N)CC5)c34)ccc2n1 (centres unmarked) [Compound P-0147, 4-(3-(2-methoxyquinolin-6-yl)pyrazolo[1,5-a]pyrazin-4-yl)cyclohex-3-ene-1-carbonitrile]	0.1 to 100 nM	0.1 to 100 nM	–	–
COc1ccc(-c2cnn3ccnc(C4=CCC(C#N)CC4)c23)cn1 (centres unmarked) [Compound P-0087, 4-(3-(6-methoxypyridin-3-yl)pyrazolo[1,5-a]pyrazin-4-yl)cyclohex-3-ene-1-carbonitrile]	100 to 1000 nM	100 to 1000 nM	–	–
CS(=O)(=O)Cn1cc(-c2ccc(-c3cnn4ccnc(C5CCC(C#N)CC5)c34)cc2)cn1 (centres unmarked) [Compound P-0023, (1s,4s)-4-(3-(4-(1-((methylsulfonyl)methyl)-1H-pyrazol-4-yl)phenyl)pyrazolo[1,5-a]pyrazin-4-yl)cyclohexane-1-carbonitrile]	0.1 to 100 nM	0.1 to 100 nM	–	–
COc1ncc(C#Cc2cnc3cccc(C4=CCC(C#N)CC4)n23)cn1 (centres unmarked) [Compound P-0314, 4-(3-((2-methoxypyrimidin-5-yl)ethynyl)imidazo[1,2-a]pyridin-5-yl)cyclohex-3-ene-1-carbonitrile]	0.1 to 100 nM	0.1 to 100 nM	–	–
N#CC1CC=C(c2cccn3ncc(-c4ccc(N5CCOCC5)c(F)c4)c23)CC1 (centres unmarked) [Compound P-0125, 4-(3-(3-fluoro-4-morpholinophenyl)pyrazolo[1,5-a]pyridin-4-yl)cyclohex-3-ene-1-carbonitrile]	0.1 to 100 nM	0.1 to 100 nM	–	–
NC(=O)C1CC=C(c2nccn3ncc(-c4ccc(OCCN5CCOCC5)cc4)c23)CC1 (centres unmarked) [Compound P-0129, 4-(3-(4-(2-morpholino-ethoxy)phenyl)pyrazolo[1,5-a]pyrazin-4-yl)cyclohex-3-ene-1-carboxamide]	0.1 to 100 nM	0.1 to 100 nM	–	–
N#CC1CCC(c2cccn3ncc(-c4ccc(OCCCN5CCCCC5)cc4)c23)CC1 (centres unmarked) [Compound P-0142, 4-(3-(4-(3-(piperidin-1-yl)propoxy)phenyl)pyrazolo[1,5-a]pyridin-4-yl)cyclohexane-1-carbonitrile]	0.1 to 100 nM	0.1 to 100 nM	–	–
CNC(=O)C1CCC(c2cccn3ncc(-c4ccc(-c5cnn(C(F)F)c5)cc4)c23)CC1 (centres unmarked) [Compound P-0317, 4-(3-(4-(1-(difluoromethyl)-1H-pyrazol-4-yl)phenyl)pyrazolo[1,5-a]pyridin-4-yl)-N-methylcyclohexane-1-carboxamide]	0.1 to 100 nM	100 to 1000 nM	–	–
Cn1cc(-c2ccc(-c3cnn4cccc(C#CC(C)(C)O)c34)cc2)cn1 [Compound P-0429, 2-methyl-4-[3-[4-(1-methylpyrazol-4-yl)phenyl]pyrazolo[1,5-a]pyridin-4-yl]but-3-yn-2-ol]	0.1 to 100 nM	0.1 to 100 nM	–	–
N#CC1CCC(c2nccn3ncc(-c4ccc(-c5cnn(CC(N)=O)c5)cc4)c23)CC1 (centres unmarked) [Compound P-0013, 2-(4-(4-(4-((1s,4s)-4-cyanoclohexyl)pyrazolo[1,5-a]pyrazin-3-yl)phenyl)-1H-pyrazol-1-yl)acetamide]	0.1 to 100 nM	0.1 to 100 nM	–	–
Cc1nc2ccc(-c3cnn4ccnc(C5=CCC(C#N)CC5)c34)cc2s1 (centres unmarked) [Compound P-0149, 4-(3-(2-methylbenzo[d]thiazol-6-yl)pyrazolo[1,5-a]pyrazin-4-yl)cyclohex-3-ene-1-carbonitrile]	0.1 to 100 nM	0.1 to 100 nM	–	–
Cn1cc(-c2ccc(-c3cnn4cccc(C#CC(C)(C)NS(C)(=O)=O)c34)cc2)cn1 [Compound P-0308, N-(2-methyl-4-(3-(4-(1-methyl-1H-pyrazol-4-yl)phenyl)pyrazolo[1,5-a]pyridin-4-yl)but-3-yn-2-yl)methanesulfonamide]	100 to 1000 nM	100 to 1000 nM	–	–
CC(C)(O)C#Cc1cccn2ncc(-c3cnn(-c4cncc(C5CC5)c4)c3)c12 [Compound P-0289, 4-(3-(1-(5-cyclopropylpyridin-3-yl)-1H-pyrazol-4-yl)pyrazolo[1,5-a]pyridin-4-yl)-2-methylbut-3-yn-2-ol]	1000 to 10000 nM	1000 to 10000 nM	–	–
N#CC1CCN(c2c(-c3ccc(-n4ccnn4)cc3)cnc3[nH]ccc23)CC1 [Compound P-0220, 1-(5-(4-(1H-1,2,3-triazol-1-yl)phenyl)-1H-pyrrolo[2,3-b]pyridin-4-yl)piperidine-4-carbonitrile]	0.1 to 100 nM	0.1 to 100 nM	–	–
COc1ccc(-c2cnn3ccnc(C4=CCC(C(N)=O)CC4)c23)cn1 (centres unmarked) [Compound P-0155, 4-(3-(6-methoxypyridin-3-yl)pyrazolo[1,5-a]pyrazin-4-yl)cyclohex-3-ene-1-carboxamide]	100 to 1000 nM	100 to 1000 nM	–	–
Cn1cc(-c2ccc(-c3cnc4[nH]ccc4c3N3CCC4(CC3)C(=O)Nc3ccccc34)cc2)cn1 [Compound P-0272, 1′-(5-(4-(1-methyl-1H-pyrazol-4-yl)phenyl)-1H-pyrrolo[2,3-b]pyridin-4-yl)spiro[indoline-3,4′-piperidin]-2-one]	100 to 1000 nM	0.1 to 100 nM	–	–

SMILES	IC50 ([1]; A549, A549 cells)	IC50 ([2]; HCT-116, 24 h)	IC50 ([1]; A549 cells)	IC50 ([2]; HCT-116, 24 hours)
N#CC1CCC(c2cccn3ncc(-c4ccc(NCCN5CCOCC5)nc4)c23)CC1 (centres unmarked) [Compound P-0138, 4-(3-(6-((2-morpholinoethyl)amino)pyridin-3-yl)pyrazolo[1,5-a]pyridin-4-yl)cyclohexane-1-carbonitrile]	0.1 to 100 nM	0.1 to 100 nM	–	–
CC(C)(C#N)Cn1cc(-c2ccc(-c3cnn4ccnc(C5=CCC(C#N)CC5)c34)cc2)cn1 (centres unmarked) [Compound P-0048, 4-(3-(4-(1-(2-cyano-2-methylpropyl)-1H-pyrazol-4-yl)phenyl)pyrazolo[1,5-a]pyrazin-4-yl)cyclohex-3-ene-1-carbonitrile]	0.1 to 100 nM	0.1 to 100 nM	–	–
Cn1cc(-c2ccc(-c3cnc4[nH]ccc4c3N3CCC4(CCNC4=O)CC3)cc2)cn1 [Compound P-0271, 8-(5-(4-(1-methyl-1H-pyrazol-4-yl)phenyl)-1H-pyrrolo[2,3-b]pyridin-4-yl)-2,8-diazaspiro[4.5]decan-1-one]	100 to 1000 nM	100 to 1000 nM	–	–
CNC(=O)c1ccc2cc(-c3cnc4[nH]ccc4c3N3CCC(F)(C#N)CC3)ccc2c1 [Compound P-0269, 6-(4-(4-cyano-4-fluoropiperidin-1-yl)-1H-pyrrolo[2,3-b]pyridin-5-yl)-N-methyl-2-naphthamide]	100 to 1000 nM	100 to 1000 nM	–	–
COc1ccc2cc(-c3cnc4[nH]ccc4c3N3CCC(C#N)CC3)ccc2n1 [Compound P-0221, 1-(5-(2-methoxyquinolin-6-yl)-1H-pyrrolo[2,3-b]pyridin-4-yl)piperidine-4-carbonitrile]	0.1 to 100 nM	0.1 to 100 nM	–	–
N#CC1CC=C(c2c(-c3ccc(-n4ccnn4)cc3)cnc3[nH]ccc23)CC1 (centres unmarked) [Compound P-0201, 4-(5-(4-(1H-1,2,3-triazol-1-yl)phenyl)-1H-pyrrolo[2,3-b]pyridin-4-yl)cyclohex-3-ene-1-carbonitrile]	100 to 1000 nM	0.1 to 100 nM	–	–
N#CC1CC=C(c2nccn3ncc(-c4ccc(Cl)cc4)c23)CC1 (centres unmarked) [Compound P-0090, 4-(3-(4-chlorophenyl)pyrazolo[1,5-a]pyrazin-4-yl)cyclohex-3-ene-1-carbonitrile]	0.1 to 100 nM	0.1 to 100 nM	–	–
CC(C)(O)c1ccc(-c2cnn3ccnc(C4=CCC(C#N)CC4)c23)cc1 (centres unmarked) [Compound P-0040, 4-(3-(4-(2-hydroxypropan-2-yl)phenyl)pyrazolo[1,5-a]pyrazin-4-yl)cyclohex-3-ene-1-carbonitrile]	0.1 to 100 nM	0.1 to 100 nM	–	–
N#CC1CCC(c2nccn3ncc(-c4ccc(-c5cnn(CC6(C#N)CC6)c5)cc4)c23)CC1 (centres unmarked) [Compound P-0050, (1s,4s)-4-(3-(4-(1-((1-cyanocyclopropyl)methyl)-1H-pyrazol-4-yl)phenyl)pyrazolo[1,5-a]pyrazin-4-yl)cyclohexane-1-carbonitrile]	0.1 to 100 nM	0.1 to 100 nM	–	–
N#CCn1cc(-c2ccc(-c3cnn4ccnc(C5CCC(C#N)CC5)c34)cc2)cn1 (centres unmarked) [Compound P-0014, (1s,4s)-4-(3-(4-(1-(cyanomethyl)-1H-pyrazol-4-yl)phenyl)pyrazolo[1,5-a]pyrazin-4-yl)cyclohexane-1-carbonitrile]	0.1 to 100 nM	0.1 to 100 nM	–	–
N#CC1CC=C(c2nccn3ncc(-c4ccc(OCC(O)CN5CCOCC5)cc4)c23)CC1 (centres unmarked) [Compound P-0078, 4-(3-(4-(2-hydroxy-3-morpholinopropoxy)phenyl)pyrazolo[1,5-a]pyrazin-4-yl)cyclohex-3-ene-1-carbonitrile]	0.1 to 100 nM	0.1 to 100 nM	–	–
N#CC1CC=C(c2cccn3ncc(-c4ccc(-n5cccn5)cc4)c23)CC1 (centres unmarked) [Compound P-0225, 4-(3-(4-(1H-pyrazol-1-yl)phenyl)pyrazolo[1,5-a]pyridin-4-yl)cyclohex-3-ene-1-carbonitrile]	0.1 to 100 nM	0.1 to 100 nM	–	–
NC(=O)C1CC=C(c2cccn3ncc(-c4ccc(-n5ccnn5)cc4)c23)CC1 (centres unmarked) [Compound P-0196, 4-(3-(4-(1H-1,2,3-triazol-1-yl)phenyl)pyrazolo[1,5-a]pyridin-4-yl)cyclohex-3-ene-1-carboxamide]	0.1 to 100 nM	100 to 1000 nM	–	–
N#CC1CCC(c2nccn3ncc(-c4ccc(N5CCOCC5)c(F)c4)c23)CC1 (centres unmarked) [Compound P-0101, 4-(3-(3-fluoro-4-morpholinophenyl)pyrazolo[1,5-a]pyrazin-4-yl)cyclohexane-1-carbonitrile]	–	–	0.1 to 100 nM	100 to 1000 nM
Cn1cc(-c2ccc(-c3cnn4cccc(C5=CCC(C(N)=O)CC5)c34)cc2)cn1 (centres unmarked) [Compound P-0443, 4-(3-(4-(1-methyl-1H-pyrazol-4-yl)phenyl)pyrazolo[1,5-a]pyridin-4-yl)cyclohex-3-ene-1-carboxamide]	0.1 to 100 nM	0.1 to 100 nM	–	–
